Legend:
[1] = target: Human norepinephrine transporter (NET) (Homo sapiens, UniProt P23975); assay: Binding assay to human norepinephrine transporter (NET), [3H]-Nisoxetin; details: human NET enriched membranes, 5 nM [3H]-Nisoxetin; read-out: Ki (nM) NET Hum
Method: Binding Assay to Human Norepinephrine Transporter (NET).
Human norepinephrine transporter (NET) enriched membranes (5 μg) were incubated with 5 nM of radiolabeled [3H]-Nisoxetin in assay buffer containing 50 mM Tris-HCl, 120 mM NaCl, 5 mM KCl, pH 7.4.
NSB (non specific binding) was measured by adding 1 μM. After 60 min incubation at 4° C., binding reaction was terminated by filtering through Multiscreen GF/C (Millipore) presoaked in 0.5% polyethyleneimine in Vacuum Manifold Station, followed by 3 washes with ice-cold filtration buffer containing 50 mM Tris-HCl, 0.9% NaCl, pH 7.4. Filter plates were dried at 60° C. for 1 hour and 30 μl of scintillation cocktail were added to each well before radioactivity reading.

[2] = target: Human α2δ-1 subunit of Cav2.2 calcium channel (Homo sapiens, UniProt P54289); assay: Binding assay to human α2δ-1 subunit of Cav2.2 calcium channel, [3H]-Gabapentin; details: human α2δ-1 enriched membranes, 15 nM [3H]-Gabapentin; read-out: Ki (nM) alpha2delta Hum
Sequence of Human α2δ-1 subunit of Cav2.2 calcium channel (P54289 25-1103): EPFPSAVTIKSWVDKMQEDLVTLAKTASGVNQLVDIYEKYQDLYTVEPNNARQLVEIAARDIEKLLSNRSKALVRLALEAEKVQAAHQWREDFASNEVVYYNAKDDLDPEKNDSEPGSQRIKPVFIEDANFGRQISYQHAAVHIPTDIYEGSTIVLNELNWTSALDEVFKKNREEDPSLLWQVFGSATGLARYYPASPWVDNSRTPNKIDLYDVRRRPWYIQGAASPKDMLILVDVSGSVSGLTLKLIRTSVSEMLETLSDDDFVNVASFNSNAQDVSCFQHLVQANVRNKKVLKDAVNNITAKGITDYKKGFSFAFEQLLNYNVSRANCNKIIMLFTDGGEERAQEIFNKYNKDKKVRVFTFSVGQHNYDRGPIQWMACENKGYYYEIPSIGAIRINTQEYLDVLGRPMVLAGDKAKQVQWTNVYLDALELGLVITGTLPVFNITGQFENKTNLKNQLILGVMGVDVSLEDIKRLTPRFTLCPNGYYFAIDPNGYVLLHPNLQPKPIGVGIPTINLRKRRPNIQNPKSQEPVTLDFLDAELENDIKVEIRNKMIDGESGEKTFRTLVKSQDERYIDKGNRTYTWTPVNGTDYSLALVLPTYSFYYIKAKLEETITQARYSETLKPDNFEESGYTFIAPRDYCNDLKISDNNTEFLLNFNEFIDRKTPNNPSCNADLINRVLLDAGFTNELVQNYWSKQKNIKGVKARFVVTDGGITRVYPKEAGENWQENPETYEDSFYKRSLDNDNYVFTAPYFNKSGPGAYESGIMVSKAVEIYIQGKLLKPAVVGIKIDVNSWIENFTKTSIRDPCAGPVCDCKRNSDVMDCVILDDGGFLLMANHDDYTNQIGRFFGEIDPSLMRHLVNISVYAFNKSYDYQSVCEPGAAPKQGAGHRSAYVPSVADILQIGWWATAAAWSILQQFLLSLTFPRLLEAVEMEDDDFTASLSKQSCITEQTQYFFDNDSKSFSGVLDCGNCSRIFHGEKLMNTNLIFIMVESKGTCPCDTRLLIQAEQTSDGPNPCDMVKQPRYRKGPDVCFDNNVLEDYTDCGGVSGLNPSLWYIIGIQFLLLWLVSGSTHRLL
Method: Binding Assay to Human α2δ-1 Subunit of Cav2.2 Calcium Channel.
Human α2δ-1 enriched membranes (2.5 μg) were incubated with 15 nM of radiolabeled [3H]-Gabapentin in assay buffer containing Hepes-KOH 10 mM, pH 7.4.
NSB (non specific binding) was measured by adding 10 μM pregabalin. After 60 min incubation at 27° C., binding reaction was terminated by filtering through Multiscreen GF/C (Millipore) presoaked in 0.5% polyethyleneimine in Vacuum Manifold Station, followed by 3 washes with ice-cold filtration buffer containing 50 mM Tris-HCl, pH 7.4.
Filter plates were dried at 60° C. for 1 hour and 30 μl of scintillation cocktail were added to each well before radioactivity reading.
Readings were performed in a Trilux 1450 Microbeta radioactive counter (Perkin Elmer).

Sequence of Human norepinephrine transporter (NET) (P23975 whole entry): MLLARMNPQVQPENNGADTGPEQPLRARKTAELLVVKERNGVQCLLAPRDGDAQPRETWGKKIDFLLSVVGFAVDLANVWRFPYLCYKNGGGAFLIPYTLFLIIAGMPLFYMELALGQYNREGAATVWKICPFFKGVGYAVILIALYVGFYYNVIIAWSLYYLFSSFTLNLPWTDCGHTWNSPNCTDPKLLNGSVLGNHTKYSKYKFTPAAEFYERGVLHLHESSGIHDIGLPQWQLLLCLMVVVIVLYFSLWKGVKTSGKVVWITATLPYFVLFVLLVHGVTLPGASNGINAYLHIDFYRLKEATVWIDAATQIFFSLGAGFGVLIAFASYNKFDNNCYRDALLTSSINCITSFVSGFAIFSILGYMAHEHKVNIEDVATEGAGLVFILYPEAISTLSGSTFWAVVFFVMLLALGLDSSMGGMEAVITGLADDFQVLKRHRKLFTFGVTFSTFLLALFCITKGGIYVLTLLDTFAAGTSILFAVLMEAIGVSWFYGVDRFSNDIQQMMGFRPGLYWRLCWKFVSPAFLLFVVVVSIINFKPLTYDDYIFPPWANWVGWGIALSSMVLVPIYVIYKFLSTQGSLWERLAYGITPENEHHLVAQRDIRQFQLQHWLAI

Row | SMILES | Ki [1] [nM] | Ki [2] [nM]
1 | CNCC[C@H](c1ccsc1)N1CC(C)(C)c2nc(C)ccc21 [Example 58, (R)-N-methyl-3-(thiophen-3-yl)-3-(3,3,5-trimethyl-2,3-dihydro-1H-pyrrolo[3,2-b]pyridin-1-yl)propan-1-amine] | > 1000 | 100 to 500
2 | CNCC[C@@H](c1ccsc1)N1CC(C)(C)c2nc(C)ccc21 [Example 59, (S)-N-methyl-3-(thiophen-3-yl)-3-(3,3,5-trimethyl-2,3-dihydro-1H-pyrrolo[3,2-b]pyridin-1-yl)propan-1-amine] | 100 to 500 | 100 to 500
3 | CNCC[C@H](c1ccsc1)N1CC(C)(C)c2ncc(C)cc21 [Example 60, (R)-N-methyl-3-(thiophen-3-yl)-3-(3,3,6-trimethyl-2,3-dihydro-1H-pyrrolo[3,2-b]pyridin-1-yl)propan-1-amine] | > 1000 | 100 to 500
4 | CNCC[C@@H](c1ccsc1)N1CC(C)(C)c2ncc(C)cc21 [Example 61, (S)-N-methyl-3-(thiophen-3-yl)-3-(3,3,6-trimethyl-2,3-dihydro-1H-pyrrolo[3,2-b]pyridin-1-yl)propan-1-amine] | > 1000 | 500 to 3000
5 | CNCC[C@H](c1ccsc1)N1CCc2nc(C)ccc21 [Example 62, (R)—N-methyl-3-(5-methyl-2,3-dihydro-1H-pyrrolo[3,2-b]pyridin-1-yl)-3-(thiophen-3-yl)propan-1-amine] | > 1000 | 500 to 3000
6 | CNCC[C@@H](c1ccsc1)N1CCc2nc(C)ccc21 [Example 63, (S)—N-methyl-3-(5-methyl-2,3-dihydro-1H-pyrrolo[3,2-b]pyridin-1-yl)-3-(thiophen-3-yl)propan-1-amine] | 500 to 1000 | 500 to 3000
7 | CNCCC(c1cccs1)N1CC(C)(C)c2nc(C)ccc21 (stereo not drawn) [Example 64, N-methyl-3-(thiophen-2-yl)-3-(3,3,5-trimethyl-2,3-dihydro-1H-pyrrolo[3,2-b]pyridin-1-yl)propan-1-amine] | 100 to 500 | < 100
8 | CNCCC(c1ccsc1)N1CC(C)(C)c2ncc(F)cc21 (stereo not drawn) [Example 65, 3-(6-Fluoro-3,3-dimethyl-2,3-dihydro-1H-pyrrolo[3,2-b]pyridin-1-yl)-N-methyl-3-(thiophen-3-yl)propan-1-amine] | > 1000 | < 100
9 | CNCCC(c1cccs1)N1CC(C)(C)c2ncc(F)cc21 (stereo not drawn) [Example 66, 3-(6-Fluoro-3,3-dimethyl-2,3-dihydro-1H-pyrrolo[3,2-b]pyridin-1-yl)-N-methyl-3-(thiophen-2-yl)propan-1-amine] | > 1000 | 100 to 500
10 | CNCCC(c1cccs1)N1CCc2c(F)cccc21 (stereo not drawn) [Example 67, 3-(4-Fluoroindolin-1-yl)-N-methyl-3-(thiophen-2-yl)propan-1-amine] | < 100 | 500 to 3000
11 | CNCCC(c1cccs1)N1CCc2c(F)cc(F)cc21 (stereo not drawn) [Example 68, 3-(4,6-Difluoroindolin-1-yl)-N-methyl-3-(thiophen-2-yl)propan-1-amine] | < 100 | 500 to 3000
12 | CNCCC(c1cccs1)N1CCc2c(OC)cccc21 (stereo not drawn) [Example 69, 3-(4-Methoxyindolin-1-yl)-N-methyl-3-(thiophen-2-yl)propan-1-amine] | < 100 | ≥ 3000
13 | CNCCC(c1ccsc1)N1CC(C)(C)c2nc(C)c(F)cc21 (stereo not drawn) [Example 71, 3-(6-Fluoro-3,3,5-trimethyl-2,3-dihydro-1H-pyrrolo[3,2-b]pyridin-1-yl)-N-methyl-3-(thiophen-3-yl)propan-1-amine] | 100 to 500 | < 100
14 | CNCCC(c1cccs1)N1CCc2cc(F)ccc21 (stereo not drawn) [Example 72, 3-(5-Fluoroindolin-1-yl)-N-methyl-3-(thiophen-2-yl)propan-1-amine] | 100 to 500 | ≥ 3000
15 | CNCCC(c1cccs1)N1CC(C)(C)c2ncc(Cl)cc21 (stereo not drawn) [Example 73, 3-(6-Chloro-3,3-dimethyl-2,3-dihydro-1H-pyrrolo[3,2-b]pyridin-1-yl)-N-methyl-3-(thiophen-2-yl)propan-1-amine] | > 1000 | 100 to 500
16 | CNCCC(c1ccsc1)N1CCc2cnccc21 (stereo not drawn) [Example 74, 3-(2,3-Dihydro-1H-pyrrolo[3,2-c]pyridin-1-yl)-N-methyl-3-(thiophen-3-yl)propan-1-amine] | > 1000 | 500 to 3000
17 | CNCCC(c1cccs1)N1CC(C)(C)c2nc(C(F)(F)F)ccc21 (stereo not drawn) [Example 75, 3-(3,3-Dimethyl-5-(trif1uoromethyl)-2,3-dihydro-1H-pyrrolo[3,2-b]pyridin-1-yl)-N-methyl-3-(thiophen-2-yl)propan-1-amine] | > 1000 | 100 to 500

Row | SMILES | Ki [1] [nM] | Ki [2] [nM]
18 | CCc1cnc2c(c1)N([C@H](CCNC)c1ccsc1)CC2 [Example 76, (R)-3-(6-Ethyl-2,3-dihydro-1H-pyrrolo[3,2-b]pyridin-1-yl)-N-methyl-3-(thiophen-3-yl)propan-1-amine] | 100 to 500 | 100 to 500
19 | CCc1cnc2c(c1)N([C@@H](CCNC)c1ccsc1)CC2 [Example 77, (S)-3-(6-Ethyl-2,3-dihydro-1H-pyrrolo[3,2-b]pyridin-1-yl)-N-methyl-3-(thiophen-3-yl)propan-1-amine] | 100 to 500 | 500 to 3000
20 | CNCC[C@@H](c1cccc(F)c1)N1CCc2ncccc21 [Example 82, (S)-3-(2,3-Dihydro-1H-pyrrolo[3,2-b]pyridin-1-yl)-3-(3-fluorophenyl)-N-methylpropan-1-amine] | 500 to 1000 | 500 to 3000
21 | CNCC[C@H](c1cccc(F)c1)N1CCc2ncccc21 [Example 83, (R)-3-(2,3-Dihydro-1H-pyrrolo[3,2-b]pyridin-1-yl)-3-(3-fluorophenyl)-N-methylpropan-1-amine] | 100 to 500 | ≥ 3000
22 | CNCC[C@@H](c1cccc(F)c1)N1CC(C)(C)c2ncccc21 [Example 84, (S)-3-(3,3-Dimethyl-2,3-dihydro-1H-pyrrolo[3,2-b]pyridin-1-yl)-3-(3-fluorophenyl)-N-methylpropan-1-amine] | 100 to 500 | ≥ 3000
23 | CNCC[C@H](c1cccc(F)c1)N1CC(C)(C)c2ncccc21 [Example 85, (R)-3-(3,3-Dimethyl-2,3-dihydro-1H-pyrrolo[3,2-b]pyridin-1-yl)-3-(3-fluorophenyl)-N-methylpropan-1-amine] | > 1000 | ≥ 3000
24 | CNCC[C@H](c1ccsc1)N1CC(C)(C)c2ncc(F)cc21 [Example 87, (R)-3-(6-Fluoro-3,3-dimethyl-2,3-dihydro-1H-pyrrolo[3,2-b]pyridin-1-yl)-N-methyl-3-(thiophen-3-yl)propan-1-amine] | > 1000 | 100 to 500
25 | CNCC[C@@H](c1ccsc1)N1CC(C)(C)c2ncc(F)cc21 [Example 88, (S)-3-(6-Fluoro-3,3-dimethyl-2,3-dihydro-1H-pyrrolo[3,2-b]pyridin-1-yl)-N-methyl-3-(thiophen-3-yl)propan-1-amine] | 500 to 1000 | 100 to 500
26 | CNCC[C@@H](c1ccsc1)N1CC(C)(C)c2nc(C)c(F)cc21 [Example 89, (S)-3-(6-Fluoro-3,3,5-trimethyl-2,3-dihydro-1H-pyrrolo[3,2-b]pyridin-1-yl)-N-methyl-3-(thiophen-3-yl)propan-1-amine] | 100 to 500 | 100 to 500
27 | CNCC[C@H](c1ccsc1)N1CC(C)(C)c2nc(C)c(F)cc21 [Example 90, (R)-3-(6-Fluoro-3,3,5-trimethyl-2,3-dihydro-1H-pyrrolo[3,2-b]pyridin-1-yl)-N-methyl-3-(thiophen-3-yl)propan-1-amine] | > 1000 | < 100
28 | CCNCC[C@H](c1ccsc1)N1CCc2ncc(F)cc21 [Example 91, (R)-N-ethyl-3-(6-fluoro-2,3-dihydro-1H-pyrrolo[3,2-b]pyridin-1-yl)-3-(thiophen-3-yl)propan-1-amine] | > 1000 | 500 to 3000
29 | CNCCC(c1cccs1)N1CC(C)(C)c2ccc(C#N)cc21 (stereo not drawn) [Example 92, 3,3-Dimethyl-1-(3-(methylamino)-1-(thiophen-2-yl)propyl)indoline-6-carbonitrile] | > 1000 | 100 to 500
30 | CNCCC(c1cccs1)N1CC(C)(C)c2ccccc21 (stereo not drawn) [Example 93, 3-(3,3-Dimethylindolin-1-yl)-N-methyl-3-(thiophen-2-yl)propan-1-amine] | < 100 | 500 to 3000
31 | CNCCC(c1cccs1)N1CCc2ccc(C#N)cc21 (stereo not drawn) [Example 94, 1-(3-(Methylamino)-1-(thiophen-2-yl)propyl)indoline-6-carbonitrile] | > 1000 | 100 to 500
32 | CNCCC(c1cccs1)N1CCc2c(C#N)cccc21 (stereo not drawn) [Example 95, 1-(3-(Methylamino)-1-(thiophen-2-yl)propyl)indoline-4-carbonitrile] | < 100 | 100 to 500
33 | CNCCC(c1cccs1)N1CCc2cc(C#N)ccc21 (stereo not drawn) [Example 96, 1-(3-(Methylamino)-1-(thiophen-2-yl)propyl)indoline-5-carbonitrile] | 500 to 1000 | 500 to 3000
